Results: patent US6409810B1, “Water-soluble trisazo compounds, aqueous ink composition and colored article” (Nippon Kayaku Kabushiki Kaisha, priority 1997, dated 2002)

How the values were obtained:
Assay type in all cases: physicochemical
[1] = Test for resistance to light of the recorded images (carbon arc fade meter, Blue Scale JIS L-0841); settings: 20 hours carbon arc fade meter; for light fastness (rank) ink jet paper A: ink jet print on ink jet paper A (Color BJ Paper LC 101, Canon); for light fastness (rank) ink jet paper B: ink jet print on ink jet paper B (coated paper STX73 A4, Sharp); for light fastness (rank) plain paper: ink jet print on plain paper (Canon TLB5A4S)
Method: (§1) A liquid having the following formulation was prepared and passed through a 0.45 μm membrane filter to obtain an aqueous ink composition for ink jet printers.
(§2) An ink jet recording was conducted on three different papers, i.e. plain papers (Canon printer paper A4 (TLB5A4S)), ink jet papers A (Color BJ Paper LC 101; ex. Canon) and ink jet papers B (coated papers for ink jet printer STX73 A4; ex. Sharp) by means of an ink jet printer (trade name NOVA JET III; ex. ENCAD). The thus-recorded images were tested with respect to the resistances to light and water and a color rendering property.
The recorded images were irradiated with light for 20 hours by means of a carbon arc fade meter (ex. SUGA Shikenkisha). Light fastness was judged according to the Blue Scale for light resistance standard as defined in JIS L-0841.

[2] = Test for resistance to water of the recorded images (immersion in water, visual examination of dropout); parameters: key to water fastness plain paper: ∘: Less amount of the compound was dropped out.; Δ: About half of the compound was dropped out.; X: Large amount of the compound was dropped out; settings: immersed in water 2 minutes with mild stirring, dried; for water fastness ink jet paper A: ink jet print on ink jet paper A; for water fastness ink jet paper B: ink jet print on ink jet paper B; for water fastness plain paper: ink jet print on plain paper
Method: as §1, §2
Test specimen was immersed in water contained in a beaker with mild stirring for 2 minutes and dried. Amount of the compound was observed by the visual examination before and after the immersion, and dropout of the compound was judged.

[3] = Color rendering property (hue change under tungsten light versus standard light source, visual); settings: hue change under tungsten light compared with standard light source
Method: as §1, §2
Discoloration was judged by the visual examination by comparing the hue change under the tungsten light with that under the standard light source.

| light fastness (rank) ink jet paper A [1] | light fastness (rank) ink jet paper B [1] [rank] | light fastness (rank) plain paper [1] | water fastness ink jet paper A [2] | water fastness ink jet paper B [2] | water fastness plain paper [2] | color rendering property [3] | Compound |
| --- | --- | --- | --- | --- | --- | --- | --- |
| 3 rank | 4 | 4-5 rank | ◯ | ◯ | x˜Δ | ◯ | O=S(=O)(O)c1cc(O)c2c(N=Nc3ccc(N=Nc4c(S(=O)(=O)O)cc5ccc(N=Nc6ccc(O)cc6O)cc5c4O)c4cc(S(=O)(=O)O)ccc34)cc(S(=O)(=O)O)cc2c1 [compound 0025] |
| 4 rank | 5 | 5 rank | ◯ | ◯ | x˜Δ | ◯ | Nc1cc(N)c(S(=O)(=O)O)cc1N=Nc1ccc2cc(S(=O)(=O)O)c(N=Nc3ccc(N=Nc4cc(S(=O)(=O)O)cc5cc(S(=O)(=O)O)cc(O)c45)c4ccc(S(=O)(=O)O)cc34)c(O)c2c1 [compound 0027] |
| 4 rank | 5 | 4-5 rank | ◯ | ◯ | ◯ | ◯ | COc1cc(N=Nc2cc(S(=O)(=O)O)cc3cc(S(=O)(=O)O)cc(O)c23)c(N)cc1N=Nc1c(S(=O)(=O)O)cc2ccc(N=Nc3cc(S(=O)(=O)O)c(N)cc3N)cc2c1O [compound 0048] |
| 4 rank | 5 | 4-5 rank | ◯ | ◯ | ◯ | ◯ | COCCOc1cc(N=Nc2cc(S(=O)(=O)O)cc3cc(S(=O)(=O)O)cc(O)c23)c(N)cc1N=Nc1c(S(=O)(=O)O)cc2ccc(N=Nc3cc(S(=O)(=O)O)c(N)cc3N)cc2c1O [compound 0051] |
| 4 rank | 5 | 4-5 rank | ◯ | ◯ | Δ | ◯ | COc1cc(N=Nc2cc(S(=O)(=O)O)cc3cc(S(=O)(=O)O)cc(O)c23)c(NC(C)=O)cc1N=Nc1c(S(=O)(=O)O)cc2cc(S(=O)(=O)O)c(N=Nc3ccc(N)cc3O)cc2c1O [compound 0231] |
| 4 rank | 4 | 4 rank | ◯ | ◯ | Δ˜◯ | ◯ | COc1cc(N=Nc2cc(S(=O)(=O)O)cc3cc(S(=O)(=O)O)cc(O)c23)c(NC(C)=O)cc1N=Nc1c(S(=O)(=O)O)cc2cc(S(=O)(=O)O)c(N=Nc3ccc(O)cc3O)cc2c1O [compound 0232] |
| 5 rank | 5 | 5 rank | ◯ | ◯ | Δ | ◯ | COc1cc(N=Nc2cc(S(=O)(=O)O)cc3cc(S(=O)(=O)O)cc(O)c23)c(NC(C)=O)cc1N=Nc1c(S(=O)(=O)O)cc2cc(S(=O)(=O)O)c(N=Nc3cc(S(=O)(=O)O)c(N)cc3N)cc2c1O [compound 0234] |
| 4 rank | 5 | 4-5 rank | ◯ | ◯ | ◯ | ◯ | COc1cc(N=Nc2cc(S(=O)(=O)O)cc3cc(S(=O)(=O)O)cc(O)c23)c(N)cc1N=Nc1c(S(=O)(=O)O)cc2cc(S(=O)(=O)O)c(N=Nc3ccc(N)cc3O)cc2c1O [compound 0264] |

More lines, now with the values behind:

| Compound | light fastness (rank) ink jet paper A [1] | light fastness (rank) ink jet paper B [1] [rank] | light fastness (rank) plain paper [1] | water fastness ink jet paper A [2] | water fastness ink jet paper B [2] | water fastness plain paper [2] | color rendering property [3] |
| --- | --- | --- | --- | --- | --- | --- | --- |
| COc1cc(N=Nc2cc(S(=O)(=O)O)cc3cc(S(=O)(=O)O)cc(O)c23)c(NC(C)=O)cc1N=Nc1c(S(=O)(=O)O)cc2ccc(N=Nc3ccc(O)cc3O)cc2c1O [compound 0012] | 3-4 rank | 4 | 4-5 rank | ◯ | ◯ | Δ | ◯ |
| COc1cc(N=Nc2cc(S(=O)(=O)O)cc3cc(S(=O)(=O)O)cc(O)c23)c(NC(C)=O)cc1N=Nc1c(S(=O)(=O)O)cc2ccc(N=Nc3cc(S(=O)(=O)O)c(N)cc3N)cc2c1O [compound 0014] | 5 rank | 5 | 5 rank | ◯ | ◯ | Δ | ◯ |
| COCCOc1cc(N=Nc2cc(S(=O)(=O)O)cc3cc(S(=O)(=O)O)cc(O)c23)c(NC(C)=O)cc1N=Nc1c(S(=O)(=O)O)cc2ccc(N=Nc3ccc(N)cc3N)cc2c1O [compound 0019] | 5 rank | 5 | 5 rank | ◯ | ◯ | Δ˜◯ | ◯ |
| COCCOc1cc(N=Nc2cc(S(=O)(=O)O)cc3cc(S(=O)(=O)O)cc(O)c23)c(NC(C)=O)cc1N=Nc1c(S(=O)(=O)O)cc2ccc(N=Nc3ccc(N)cc3O)cc2c1O [compound 0020] | 4 rank | 5 | 4-5 rank | ◯ | ◯ | Δ˜◯ | ◯ |
| COCCOc1cc(N=Nc2cc(S(=O)(=O)O)cc3cc(S(=O)(=O)O)cc(O)c23)c(NC(C)=O)cc1N=Nc1c(S(=O)(=O)O)cc2ccc(N=Nc3cc(S(=O)(=O)O)c(N)cc3N)cc2c1O [compound 0022] | 5 rank | 5 | 5 rank | ◯ | ◯ | Δ˜◯ | ◯ |
